Active and inactive are the calls of the source. No cut-off for these calls is given here.
Columns and labels:
SARS-CoV-2 [1] = experiment: microbe, parasite or virus in culture; settings: Severe acute respiratory syndrome coronavirus 2, Delta, Vero C1008
SARS-CoV-2 [2] = experiment: microbe, parasite or virus in culture; settings: Severe acute respiratory syndrome coronavirus 2, Delta, Vero C1008; remark: listed apart in the source
SARS-CoV-2 [3] = experiment: Antiviral activity against SARS-CoV-2 omicron BA.5 variant infected in K18-hACE2 transgenic mouse model assessed as log reduction in viral copies in lungs at 200 mg/kg, po pre-infected with virus for 2 hrs followed by twice daily compound administration and measured on day 4; format: functional, Severe acute respiratory syndrome coronavirus 2; settings: time 4 day
SARS-CoV-2 [4] = experiment: Antiviral activity against SARS-CoV-2 omicron BA.5 variant infected in K18-hACE2 transgenic mouse model assessed as log reduction in viral copies in lungs at 200 mg/kg, po pre-infected with virus for 2 hrs followed by twice daily compound administration and measured on day 2; format: functional, Severe acute respiratory syndrome coronavirus 2; settings: time 2 day
SARS-CoV-2 [5] = experiment: Antiviral activity against SARS-CoV-2 omicron BA.5 variant infected in K18-hACE2 transgenic mouse model assessed as increase in body weight at 100 to 200 mg/kg, po pre-infected with virus for 2 hrs followed by twice daily compound administration and measured on day 4; format: functional, organism-based; settings: Severe acute respiratory syndrome coronavirus 2, dose 100-200 mg/kg, time 4.0 day
SARS-CoV-2 [6] = experiment: Antiviral activity against SARS-CoV-2 omicron BA.5 variant infected in K18-hACE2 transgenic mouse model assessed as inhibition of viral replication at 100 mg/kg, po pre-infected with virus for 2 hrs followed by twice daily compound administration and measured on day 2 to 4; format: functional, organism-based; settings: Severe acute respiratory syndrome coronavirus 2, time 2-4 day
SARS-CoV-2 [7] = experiment: Antiviral activity against SARS-CoV-2 omicron BA.5 variant infected in K18-hACE2 transgenic mouse model assessed as increase in body weight at 200 mg/kg, po pre-infected with virus for 2 hrs followed by twice daily compound administration and measured on day 4 in presence of ritonavir; format: functional, organism-based; settings: Severe acute respiratory syndrome coronavirus 2, time 4.0 day
SARS-CoV-2 [8] = experiment: Antiviral activity against SARS-CoV-2 omicron BA.5 variant infected in K18-hACE2 transgenic mouse model assessed as increase in body weight at 50 mg/kg, po pre-infected with virus for 2 hrs followed by twice daily compound administration and measured on day 4 in presence of nirmatrelvir; format: functional, organism-based; settings: Severe acute respiratory syndrome coronavirus 2, time 4.0 day

Compound | EC50 (SARS-CoV-2 [1]) | also measured
CNC(=O)c1cc(Br)cc([N+](=O)[O-])c1N[C@@H]1CCCC[C@@H]1NC(=O)c1cc(=O)[nH]c2ccc(F)cc12 | 2.44 µM | 
O=C(NCCC(F)(F)F)C1CN(c2ccc(Cl)c(Cl)c2)CCN1C(=O)c1cc(=O)[nH]c2ccccc12 (centres undefined) | 17.7 µM | 
O=C(c1cc(=O)[nH]c2ccccc12)N1CCN(c2ccc(Cl)c(Cl)c2)CC1CN1CCOCC1 (centres undefined) | 7.24 µM | EC50 (SARS-CoV-2 [2]): 7.24 µM
CNC(=O)c1cc(Br)cc([N+](=O)[O-])c1N[C@@H]1CCCC[C@@H]1NC(=O)c1cc(=O)[nH]c2c(F)cccc12 | 0.346 µM | 
CNC(=O)c1cc(Br)cc([N+](=O)[O-])c1N[C@@H]1CCCC[C@@H]1NC(=O)c1cc(=O)[nH]c2ccccc12 | 0.849 µM | 
O=C(N[C@H]1CCCC[C@H]1Nc1c(C(=O)N2CCOCC2)cc(Br)cc1[N+](=O)[O-])c1cc(=O)[nH]c2c(F)cccc12 | 0.367 µM | 
O=C(N[C@H]1CCCC[C@H]1Nc1c(C(=O)N2CCOCC2)cc(C2CC2)cc1[N+](=O)[O-])c1cc(=O)[nH]c2ccccc12 | 4.46 µM | 
O=C(N[C@H]1CCCC[C@H]1Nc1c(C(=O)N2CCOCC2)cc(Br)cc1[N+](=O)[O-])c1cc(=O)[nH]c2ccccc12 | 3.36 µM | 
O=C(NCCCC(F)(F)F)C1CN(c2ccc(Cl)c(Cl)c2)CCN1C(=O)c1cc(=O)[nH]c2ccccc12 (centres undefined) | 3.95 µM | 
COc1ccc2[nH]c(=O)cc(C(=O)N[C@H]3CCCC[C@H]3Nc3c(C(=O)N4CCOCC4)cc(C4CC4)cc3[N+](=O)[O-])c2c1 | 7.81 µM | 
CN1CCN(C(=O)c2cc(Br)cc([N+](=O)[O-])c2N[C@@H]2CCCC[C@@H]2NC(=O)c2cc(=O)[nH]c3c(F)cccc23)CC1 | 0.272 µM | log(activity) (SARS-CoV-2 [3]): 1; log(activity) (SARS-CoV-2 [4]): 1.5; Activity (SARS-CoV-2 [5]): Active; Activity (SARS-CoV-2 [6]): Active
CC(C)(C)[C@H](NC(=O)C(F)(F)F)C(=O)N1C[C@H]2[C@@H]([C@H]1C(=O)N[C@H](C#N)C[C@@H]1CCNC1=O)C2(C)C |  | Activity (SARS-CoV-2 [7]): Active
CNC(=O)c1cc(C2CC2)cc([N+](=O)[O-])c1N[C@@H]1CCCC[C@@H]1NC(=O)c1cc(=O)[nH]c2ccccc12 | 2.69 µM | 
CC(C)c1nc(CN(C)C(=O)N[C@H](C(=O)N[C@@H](Cc2ccccc2)C[C@H](O)[C@H](Cc2ccccc2)NC(=O)OCc2cncs2)C(C)C)cs1 |  | Activity (SARS-CoV-2 [8]): Active

From ChEMBL document CHEMBL5523769, “Discovery of Novel Nonpeptidic and Noncovalent Small Molecule 3CLpro Inhibitors as anti-SARS-CoV-2 Drug Candidate” (J Med Chem, 2024)
